Measurements reported in patent US20240360148A1 (SUVALENT THERAPEUTICS, INC., priority 2021, published 2024).

Target: SAE1 (Homo sapiens (Human), UniProt Q9UBE0+Q9UBT2)
Assay: SAE High Throughput Biochemical Assay (HTRF), 15 min preincubation
Details: read-out: 15 min preincubation HTRF IC50 (μM) Ave, SAE1 12.5 nM, ATP 100 μM
Procedure: Assay buffer was prepared [50 mM HEPES, pH 7.5, 0.1% BSA and 10 mM MgCl2] as was the Stop Buffer [100 mM HEPES, pH 7.5, 0.05% Tween20, and 410 mM KF]. The 2×Reaction Buffer [80 nM SUMO-GST, 80 nM UBC9-His, 200 μM ATP and diluted in Assay Buffer] and Antibody Reaction Mix [13.34 nM anti-GSTXL665, 1.66 nM anti-His EuK and Diluted in Stop Buffer] were also prepared. Compounds were dissolved at 200×in DMSO in a 384-well plate. Serial dilutions were performed in DMSO for each compound, and then each concentration was diluted another 50-fold in Assay Buffer, to 4× the final concentration. 2.5 μL of each concentration was transferred into its own well in a 384-well plate. SAE1 was then diluted to 4× in Assay Buffer, and 2.5 μL of 4×SAE1 was mixed into each compound-containing well. After incubating for 15 minutes at RT, 5 μL of 2×Reaction Buffer was mixed into every well. Then after another 45 minutes at RT, 10 μL of Antibody Reaction Mix was added and mixed into every well. This plate was then read on an HTRF-compatible plate reader after 2 hours at RT, and again after sitting at RT overnight. [Final Component Concentrations: SAE1: 12.5 nM; SUMO-GST: 40 nM; UBC9-His: 40 nM; Anti-GST-XL665: 6.67 nM; Anti-His-EuK: 0.83 nM; and ATP: 100 μM] Alternatively, the compounds are tested at a single concentration of 25 micromolar and the percent of control is measured.

SAE1, sequence (Q9UBE0 whole entry): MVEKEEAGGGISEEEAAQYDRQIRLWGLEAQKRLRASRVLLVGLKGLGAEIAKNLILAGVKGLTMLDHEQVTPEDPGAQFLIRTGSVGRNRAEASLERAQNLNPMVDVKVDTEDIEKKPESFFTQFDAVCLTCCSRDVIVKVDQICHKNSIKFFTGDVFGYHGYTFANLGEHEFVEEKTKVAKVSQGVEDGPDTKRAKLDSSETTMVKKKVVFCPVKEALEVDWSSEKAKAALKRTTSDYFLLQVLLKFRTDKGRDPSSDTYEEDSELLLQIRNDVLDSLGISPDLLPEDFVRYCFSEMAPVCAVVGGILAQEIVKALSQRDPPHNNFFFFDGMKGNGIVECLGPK
SAE1, sequence (Q9UBT2 whole entry): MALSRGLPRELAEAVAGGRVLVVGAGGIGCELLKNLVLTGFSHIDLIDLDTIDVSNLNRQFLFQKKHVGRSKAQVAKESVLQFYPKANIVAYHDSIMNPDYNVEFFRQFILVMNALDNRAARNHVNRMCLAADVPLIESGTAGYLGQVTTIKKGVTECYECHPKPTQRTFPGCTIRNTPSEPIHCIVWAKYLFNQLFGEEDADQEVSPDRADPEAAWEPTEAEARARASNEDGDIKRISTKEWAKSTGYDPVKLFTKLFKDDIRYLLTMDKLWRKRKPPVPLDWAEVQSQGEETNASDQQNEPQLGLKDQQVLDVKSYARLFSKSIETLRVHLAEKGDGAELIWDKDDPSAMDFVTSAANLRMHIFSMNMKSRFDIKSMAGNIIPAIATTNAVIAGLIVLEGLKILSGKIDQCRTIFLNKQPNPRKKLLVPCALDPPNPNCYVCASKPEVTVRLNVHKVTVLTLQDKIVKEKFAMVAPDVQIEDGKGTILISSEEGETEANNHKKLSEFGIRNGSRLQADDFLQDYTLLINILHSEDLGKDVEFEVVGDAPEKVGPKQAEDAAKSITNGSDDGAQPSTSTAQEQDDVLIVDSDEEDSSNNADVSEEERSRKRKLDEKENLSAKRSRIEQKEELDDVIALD

## CCn1cc(-c2ccccc2C2CN(C(=O)/C=C/CN(C)C)Cc3sc(C#N)c(F)c32)c(C(F)(F)F)n1 (stereo not drawn) [Example 213, (E)-6-(4-(dimethylamino)but-2-enoyl)-4-(2-(1-ethyl-3-(trifluoromethyl)-1 H pyrazol-4-yl)phenyl)-3-fluoro-4,5,6,7-tetrahydrothieno[2,3-c]pyridine-2-carbonitrile]
  IC50: 8.81 µM

## CCn1cc(-c2ccccc2[C@@H]2CN(C(=O)/C=C/C3(N)CC3)Cc3sc(C#N)cc32)c(C(F)(F)F)n1 [Example 109, (S, E)-6-(3-(1-Aminocyclopropyl)acryloyl)-4-(2-(1-ethyl-3-(trifluoromethyl)-1 H-pyrazol-4-yl)phenyl)-4,5,6,7-tetrahydrothieno[2,3-c]pyridine-2-carbonitrile]
  IC50: 26.5 µM

## CCn1cc(-c2c(C3CN(C(=O)/C=C/CN(C)C)Cc4sc(C#N)cc43)ccnc2F)c(C(F)(F)F)n1 (stereo not drawn) [Example 202, (E)-6-(4-(Dimethylamino)but-2-enoyl)-4-(3-(1-ethyl-3-(trifluoromethyl)-1 H-pyrazol-4-yl)-2-fluoropyridin-4-yl)-4,5,6,7-tetrahydrothieno[2,3-c]pyridine-2-carbonitrile]
  IC50: 24.9 µM

## CCOC(=O)CCn1cc(-c2ccccc2[C@@H]2CN(C(=O)/C=C/CN(C)C)Cc3sc(C#N)cc32)c(C(F)(F)F)n1 [Example 170, Ethyl (S,E)-3-(4-(2-(2-cyano-6-(4-(dimethylamino)but-2-enoyl)-4,5,6,7-tetrahydrothieno[2,3-c]pyridin-4-yl)phenyl)-3-(trifluoromethyl)-1H pyrazol-1-yl)propanoate]
  IC50: 10.2 µM

## CCn1cc(-c2cccc(O)c2C2CN(C(=O)/C=C/CN(C)C)Cc3sc(C#N)cc32)c(C(F)(F)F)n1 (stereo not drawn) [Example 204, (E)-6-(4-(Dimethylamino)but-2-enoyl)-4-(2-(1-ethyl-3-(trifluoromethyl)-1 H-pyrazol-4-yl)-6-hydroxyphenyl)-4,5,6,7-tetrahydrothieno[2,3-c]pyridine-2-carbonitrile]
  IC50: > 25 µM

## CCn1cc(-c2ccc(O)cc2C2CN(C(=O)/C=C/CN(C)C)Cc3sc(C#N)cc32)c(C(F)(F)F)n1 (stereo not drawn) [Example 205, (E)-6-(4-(Dimethylamino)but-2-enoyl)-4-(2-(1-ethyl-3-(trifluoromethyl)-1 H-pyrazol-4-yl)-5-hydroxyphenyl)-4,5,6,7-tetrahydrothieno[2,3-c]pyridine-2-carbonitrile]
  IC50: > 25 µM

## CN(C)C/C=C/C(=O)N1Cc2sc(C#N)cc2[C@H](c2ccccc2-c2cn(Cc3ncno3)nc2C(F)(F)F)C1 [Example 166, (S,E)-4-(2-(1-((1,2,4-Oxadiazol-5-yl)methyl)-3-(trifluoromethyl)-1H pyrazol-4-yl)phenyl)-6-(4-(dimethylamino)but-2-enoyl)-4,5,6,7-tetrahydrothieno[2,3-c]pyridine-2-carbonitrile]
  IC50: 19.9 µM

## CCn1cc(-c2ccccc2[C@@H]2CN(C(=O)/C=C/[C@@H](C)NC)Cc3sc(C#N)cc32)c(C(F)(F)F)n1 [Example 87, (S)-4-(2-(1-Ethyl-3-(trifluoromethyl)-1 H-pyrazol-4-yl)phenyl)-6-((R, E)-4-(methylamino)pent-2-enoyl)-4,5,6,7-tetrahydrothieno[2,3-c]pyridine-2-carbonitrile]
  IC50: 18.2 µM

## CCn1cc(-c2ccccc2[C@@H]2CN(C(=O)/C=C/C(C)NC)Cc3sc(C#N)cc32)c(C(F)(F)F)n1 (stereo partly drawn) [Example 77, (4S)-4-(2-(1-Ethyl-3-(trifluoromethyl)-1 H pyrazol-4-yl)phenyl)-6-((E)-4-(methylamino)pent-2-enoyl)-4,5,6,7-tetrahydrothieno[2,3-c]pyridine-2-carbonitrile]
  IC50: 9.55 µM

## CCn1cc(-c2ccccc2[C@@H]2CN(C(=O)C#CC3CCCNC3)Cc3sc(C#N)cc32)c(C(F)(F)F)n1 (stereo partly drawn) [Example 145, (4S)-4-(2-(1-Ethyl-3-(trifluoromethyl)-1 H-pyrazol-4-yl)phenyl)-6-(3-(piperidin-3-yl)propioloyl)-4,5,6,7-tetrahydrothieno[2,3-c]pyridine-2-carbonitrile]
  IC50: 5.62 µM

## CCn1cc(-c2ccccc2[C@@H]2CN(C(=O)/C=C/CNC3(C)CCOC3)Cc3sc(C#N)cc32)c(C(F)(F)F)n1 (stereo partly drawn) [Example 97, (4S)-4-(2-(1-Ethyl-3-(trifluoromethyl)-1 H-pyrazol-4-yl)phenyl)-6-((E)-4-((3-methyltetrahydrofuran-3-yl)amino)but-2-enoyl)-4,5,6,7-tetrahydrothieno[2,3-c]pyridine-2-carbonitrile]
  IC50: 2.76 µM

## CCn1cc(-c2ccccc2[C@@H]2CN(C(=O)/C=C/C(c3ccccc3)N(C)C)Cc3sc(C#N)cc32)c(C(F)(F)F)n1 (stereo partly drawn) [Example 26, (4S)-6-((E)-4-(Dimethylamino)-4-phenylbut-2-enoyl)-4-(2-(1-ethyl-3-(trifluoromethyl)-1 H-pyrazol-4-yl)phenyl)-4,5,6,7-tetrahydrothieno[2,3-c]pyridine-2-carbonitrile]
  IC50: 7.92 µM

## CCn1cc(-c2ccccc2[C@@H]2CN(C(=O)/C=C/[C@H](C)N)Cc3sc(C#N)cc32)c(C(F)(F)F)n1 [Example 49, (S)-6-((S,E)-4-aminopent-2-enoyl)-4-(2-(1-ethyl-3-(trifluoromethyl)11 H-pyrazol-4-yl)phenyl)-4,5,6,7-tetrahydrothieno[2,3-c]pyridine-2-carbonitrile]
  IC50: 10.1 µM

## CN(C)C/C=C/C(=O)N1Cc2sc(C#N)cc2[C@H](c2ccccc2-c2c[nH]nc2C(F)(F)F)C1 [Example 153, (S, E)-6-(4-(Dimethylamino)but-2-enoyl)-4-(2-(3-(trifluoromethyl)-1 H-pyrazol-4-yl)phenyl)-4,5,6,7-tetrahydrothieno[2,3-c]pyridine-2-carbonitrile]
  IC50: 9.68 µM

## CN(C)C/C=C/C(=O)N1Cc2sc(C#N)cc2[C@H](c2ccccc2-c2cn(-c3ncccc3F)nc2C(F)(F)F)C1 [Example 158, (S,E)-6-(4-(Dimethylamino)but-2-enoyl)-4-(2-(1-(3-fluoropyridin-2-yl)-3-(trifluoromethyl)-1H pyrazol-4-yl)phenyl)-4,5,6,7-tetrahydrothieno[2,3-c]pyridine-2-carbonitrile]
  IC50: 6.37 µM

## CCn1cc(-c2nc(N)ccc2C2CN(C(=O)/C=C/CN(C)C)Cc3sc(C#N)cc32)c(C(F)(F)F)n1 (stereo not drawn) [Example 192, (E)-4-(6-Amino-2-(1-ethyl-3-(trifluoromethyl)-1 H-pyrazol-4-yl)pyridin-3-yl)-6-(4-(dimethylamino)but-2-enoyl)-4,5,6,7-tetrahydrothieno[2,3-c]pyridine-2-carbonitrile]
  IC50: > 25 µM

## CN(C)C/C=C/C(=O)N1Cc2sc(C#N)cc2[C@H](c2ccccc2-c2cn(CC(N)=O)nc2C(F)(F)F)C1 [Example 162, (S, E)-2-(4-(2-(2-Cyano-6-(4-(dimethylamino)but-2-enoyl)-4,5,6,7-tetrahydrothieno[2,3-c]pyridin-4-yl)phenyl)-3-(trifluoromethyl)-1 H-pyrazol-1-yl)acetamide]
  IC50: 11.6 µM

## CCn1cc(-c2c(F)cccc2[C@@H]2CN(C(=O)/C=C/[C@@H](C)NC)Cc3sc(C#N)cc32)c(C(F)(F)F)n1 [Example 88, (S)-4-(2-(1-Ethyl-3-(trifluoromethyl)-1H pyrazol-4-yl)-3-fluorophenyl)-6-((R,E)-4-(methylamino)pent-2-enoyl)-4,5,6,7-tetrahydrothieno[2,3-c]pyridine-2-carbonitrile]
  IC50: 2.7 µM
